Assay results from patent US12590062B2, “PD-1/PD-L1 inhibitors” (Gilead Sciences, Inc., priority 2017, dated 2026).

Assays:
PD-1/PD-L1 = PD-1/PD-L1 (Homo sapiens, UniProt Q9NZQ7); experiment: PD-1/PD-L1 biochemical protein-protein interaction assay (ALPHA); assay type: binding; details: 0.3 nM His tagged PD-L1, 2.5 nM biotinylated Fc-PD-1, 60 minutes at 25° C., read-out: IC50 PD-L1-PD-1 Alpha IC50-mono PD-L1-fcP-D1
Summary of the method: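 Bead proximity read-out: compound-driven loss of ALPHA signal between anti-His acceptor and streptavidin donor beads (20 μg/mL acceptor). Proteins: 0.3 nM His-PD-L1, 2.5 nM biotin-Fc-PD-1, final. 60 min, 25° C, Hepes pH 7.4 buffer. IC50 via four-parameter dose-response fit.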

PD-L1 = molecular target: T1, PD-L1 (Homo sapiens, UniProt Q9NZQ7); experiment: PD-L1/PD-L1 dimerization biochemical protein-protein interaction assay (ALPHA); assay type: binding; details: compound-induced PD-L1 dimerization, head prints '1 nM' (0.5 nM His-tagged PD-L1 and 0.5 nM FLAG-tagged PD-L1), read-out: AC50 PDL1 Dimer Alpha 1 nM
T1 construct: determine if they can specifically dimerize the extracellular domains of PD-L1
T1 sequence (Q9NZQ7 19-238 limits assumed): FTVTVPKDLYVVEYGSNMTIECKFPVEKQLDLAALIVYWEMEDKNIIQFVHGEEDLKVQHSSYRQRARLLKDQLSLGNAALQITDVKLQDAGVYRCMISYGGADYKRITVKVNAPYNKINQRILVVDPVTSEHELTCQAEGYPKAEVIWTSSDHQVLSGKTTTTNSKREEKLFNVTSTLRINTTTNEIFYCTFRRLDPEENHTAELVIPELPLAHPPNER
T1 sequence (Q9NZQ7 19-238 limits assumed): as above
Summary of the method: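 After 2 h at 25 °C with compound, His- and FLAG-tagged PD-L1 ECDs (each 0.5 nM final; 25 mM Hepes pH 7.4, 150 mM NaCl) were detected by sequential anti-His acceptor and anti-FLAG donor bead incubations. Dose-response curves fitted to four-parameter equation for AC50.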

PD-1/PD-L1 interaction = molecular target: T2, PD-1/PD-L1 interaction (Homo sapiens, UniProt Q9NZQ7); experiment: PD-1/PD-L1 NFAT reporter co-culture assay; assay type: cell-based; details: Jurkat PD-1 NFAT-luciferase cells co-cultured with aAPC-PD-L1 CHO cells, 6 hrs at 37° C.; read-out: EC50 NFAT Luciferase
T2 construct: expressed in transfected cells; host or cells: CHO cells (aAPC-PD-L1) co-cultured with Jurkat cells overexpressing PD-1 and an NFAT-luciferase reporter
T2 sequence (Q9NZQ7 19-290): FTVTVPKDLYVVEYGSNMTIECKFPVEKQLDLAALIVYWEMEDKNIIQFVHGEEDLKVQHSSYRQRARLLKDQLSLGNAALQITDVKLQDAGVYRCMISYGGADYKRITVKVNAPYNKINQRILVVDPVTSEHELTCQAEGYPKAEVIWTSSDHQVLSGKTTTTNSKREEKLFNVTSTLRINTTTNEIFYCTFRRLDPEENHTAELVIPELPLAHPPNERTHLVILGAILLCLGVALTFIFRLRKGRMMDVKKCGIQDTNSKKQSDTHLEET
Summary of the method: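 Compounds are scored by restoration of NFAT-luciferase signal in PD-1-expressing Jurkat cells cultured 6 h at 37 °C on CHO cells presenting anti-CD3 and PD-L1; EC50 values derive from four-parameter curve fitting.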

Sequence of PD-1/PD-L1 (Q9NZQ7 19-238 limits assumed): as the sequence (Q9NZQ7 19-238 limits assumed) above

Row | SMILES | IC50 (PD-1/PD-L1) [nM] | AC50 (PD-L1) [nM] | EC50 (PD-1/PD-L1 interaction) [nM]
1 | N#Cc1cncc(COc2nc(O[C@H]3CCc4c(-c5cccc(-c6ccc(OCCNCCO)cc6)c5Cl)cccc43)c(Br)cc2CNC[C@@H](O)CC(=O)O)c1 [Example 662] | 0.139 | 14.5 | 83
2 | C[C@@](CO)(NCc1cc(Br)c(O[C@H]2CCc3c(-c4cccc(-c5ccc(OCCNCCO)cc5)c4Cl)cccc32)nc1OCc1cncc(C#N)c1)C(=O)O [Example 663] | 0.064 | 6.56 | 118
3 | CNCc1cc(Cl)c(O[C@H]2CCc3c(-c4cccc(-c5ccc(OCCN6CC[C@@H](O)C6)cc5)c4Cl)cccc32)nc1OCc1cncc(S(C)(=O)=O)c1 [Example 664] | 2.6 | ≥ 10000 | ≥ 50000
4 | CC(C)(NCc1cc(Cl)c(O[C@H]2CCc3c(-c4cccc(-c5ccc(OCCN6CC[C@@H](O)C6)cc5)c4Cl)cccc32)nc1OCc1cncc(S(C)(=O)=O)c1)C(=O)O [Example 665] | 0.064 | 16.5 | 150
5 | CS(=O)(=O)c1cncc(COc2nc(O[C@H]3CCc4c(-c5cccc(-c6ccc(OCCN7CC[C@@H](O)C7)cc6)c5Cl)cccc43)c(Cl)cc2CNC[C@@H](O)CC(=O)O)c1 [Example 666] | 0.076 | 22.9 | 418
6 | CC(C)(NCc1cc(Cl)c(O[C@H]2CCc3c(-c4cccc(-c5ccc(OCCN6CC[C@@H](O)C6)cc5)c4Cl)cccc32)nc1OCc1cncc(C#N)c1)C(=O)O [Example 667] | 0.064 | 17 | 1890
7 | C[C@@](CO)(NCc1cc(Cl)c(O[C@H]2CCc3c(-c4cccc(-c5ccc(OCCN6CC[C@@H](O)C6)cc5)c4Cl)cccc32)nc1OCc1cncc(C#N)c1)C(=O)O [Example 668] | 0.064 | 16.5 | 886
8 | C[C@@](CO)(NCc1cc(Cl)c(O[C@H]2CCc3c(-c4cccc(-c5ccc(OCCN6CC[C@@H](O)C6)cc5)c4Cl)cccc32)nc1OCc1cncc(S(C)(=O)=O)c1)C(=O)O [Example 669] | 0.064 | 17.2 | 637
9 | CN1CCCC1c1ccc(-c2cccc(-c3cccc4c3CC[C@@H]4Oc3nc(OCc4cncc(C#N)c4)c(CNCCO)cc3Cl)c2Cl)cc1 (stereo partly drawn) [Example 670] | 1.74 | 74.8 | ≥ 50000
10 | C[C@@](CO)(NCc1cc(Cl)c(O[C@H]2CCc3c(-c4cccc(-c5ccc(S(N)(=O)=O)cc5)c4Cl)cccc32)nc1OCc1cncc(C#N)c1)C(=O)O [Example 671] | 0.159 | ≥ 10000 | 235
11 | CN1CCCC1c1ccc(-c2cccc(-c3cccc4c3CC[C@@H]4Oc3nc(OCc4cncc(C#N)c4)c(CNC(C)(C)C(=O)O)cc3Cl)c2Cl)cc1 (stereo partly drawn) [Example 672] | 0.064 | 24.5 | 435
12 | C[C@@](CO)(NCc1ccc(O[C@H]2CCc3c(-c4cccc(OCCCN5CC[C@@H](O)C5)c4Cl)cccc32)nc1OCc1cncc(C#N)c1)C(=O)O [Example 673] | 0.154 | 399 | 583
13 | C[C@@](CO)(NCc1cc(Cl)c(O[C@H]2CCc3c(-c4cccc(-c5ccc(OCCNCCO)cc5)c4Cl)cccc32)nc1OCc1cncc(C#N)c1)C(=O)O [Example 674] | 0.064 | 11.3 | 44
14 | Cc1c(-c2ccc(OCCNC[C@@H](O)CC(=O)O)cc2)cccc1-c1cccc2c1CC[C@@H]2Oc1ccc(CNC[C@@H](O)CC(=O)O)c(OCc2cncc(C#N)c2)n1 [Example 677] | 0.063 | 180 | 145
15 | COc1nc(O[C@H]2CCc3c(-c4cccc5c4CC[C@@H]5Oc4ccc(CNC[C@@H](O)CC(=O)O)c(OCc5cncc(C#N)c5)n4)cccc32)c(Br)cc1CNC[C@@H](O)CC(=O)O [Example 678] | 0.105 | 254 | 264
16 | COc1nc(O[C@H]2CCc3c(-c4cccc5c4CC[C@@H]5Oc4nc(OCc5cncc(C#N)c5)c(CNC[C@@H](O)CC(=O)O)cc4Br)cccc32)c(Br)cc1CNC[C@@H](O)CC(=O)O [Example 679] | 0.058 | 101 | 64
17 | COc1nc(-c2cccc(-c3cccc4c3CC[C@@H]4Oc3nc(OCc4cncc(C#N)c4)c(CN[C@@](C)(CO)C(=O)O)cc3Cl)c2Cl)ccc1CN1CC2(C1)CN(C(=O)OC(C)(C)C)C2 [Example 682] | 0.421 | 194 | 243

Row | SMILES | IC50 (PD-1/PD-L1) [nM] | AC50 (PD-L1) [nM] | EC50 (PD-1/PD-L1 interaction) [nM]
18 | COc1nc(-c2cccc(-c3cccc4c3CC[C@@H]4Oc3nc(OCc4cncc(C#N)c4)c(CNC[C@@H](O)CC(=O)O)cc3Cl)c2Cl)ccc1CN1CC2(CCC(=O)N2)C1 [Example 683] | 0.104 | 116 | 98
19 | COc1nc(-c2cccc(-c3cccc4c3CC[C@@H]4Oc3nc(OCc4cncc(C#N)c4)c(CN[C@@](C)(CO)C(=O)O)cc3Cl)c2Cl)ccc1CN1CC2(CCC(=O)N2)C1 [Example 684] | 0.064 | 41.2 | 36
20 | C[C@@](CO)(NCc1ccc(O[C@H]2CCc3c(-c4cccc5c4CC[C@@H]5Oc4nc(OCc5cncc(C#N)c5)c(CN[C@@](C)(CO)C(=O)O)cc4Cl)cccc32)cc1)C(=O)O [Example 685] | 0.552 | 1820 | 625
21 | C[C@@](CO)(NCc1cc(Cl)c(O[C@H]2CCc3c(-c4cccc5c4CC[C@@H]5Oc4nc(OCc5cc(C#N)cc(C#N)c5)c(CN[C@@](C)(CO)C(=O)O)cc4Cl)cccc32)nc1OCc1cc(C#N)cc(C#N)c1)C(=O)O [Example 686] | 0.282 | 137 | 46
22 | C[C@@](CO)(NCc1cc(Cl)c(O[C@H]2CCc3c(-c4cccc5c4CC[C@@H]5Oc4ccc(CN5CC[C@@H](O)C5)c(OCc5cncc(S(C)(=O)=O)c5)n4)cccc32)nc1OCc1cncc(S(C)(=O)=O)c1)C(=O)O [Example 687] | 0.659 | 3100 | 605
23 | C[C@@](CO)(NCc1cc(Cl)c(O[C@H]2CCc3c(-c4cccc5c4CC[C@@H]5Oc4nc(OCc5cncc(S(C)(=O)=O)c5)c(CN5CC[C@@H](O)C5)cc4Cl)cccc32)nc1OCc1cncc(S(C)(=O)=O)c1)C(=O)O [Example 688] | 0.412 | 141 | ≥ 50000
24 | CS(=O)(=O)c1cncc(COc2nc(O[C@H]3CCc4c(-c5cccc6c5CC[C@@H]6Oc5nc(OCc6cncc(S(C)(=O)=O)c6)c(CN6CC[C@@H](O)C6)cc5Cl)cccc43)c(Cl)cc2CN2CC[C@@H](O)C2)c1 [Example 689] | 0.064 | 114 | 139
25 | C[C@@](CO)(NCc1cc(Cl)c(O[C@H]2CCc3c(-c4cccc5c4CC[C@@H]5Oc4nc(OCc5cncc(S(C)(=O)=O)c5)c(CNCCO)cc4Cl)cccc32)nc1OCc1cncc(S(C)(=O)=O)c1)C(=O)O [Example 690] | 0.28 | 80.8 | 287
26 | C[C@@](CO)(NCc1cc(Cl)c(O[C@H]2CCc3c(-c4cccc(-c5ccc6c(c5)C[C@H](N)C6)c4Cl)cccc32)nc1OCc1cncc(C#N)c1)C(=O)O [Example 695] | 0.064 | 21.6 | 26
27 | C[C@@](CO)(NCc1cc(Cl)c(O[C@H]2CCc3c(-c4cccc(-c5ccc6c(c5)C[C@@H](N)C6)c4Cl)cccc32)nc1OCc1cncc(C#N)c1)C(=O)O [Example 696] | 0.099 | 16.9 | 12
28 | COc1nc(-c2cccc(-c3cccc4c3CC[C@@H]4Oc3nc(OC)c(CN[C@@](C)(CO)C(=O)O)cc3Br)c2Br)ccc1CNC[C@@H]1CCC(=O)N1 [Example 697] | 0.068 | 51 | 50
29 | COc1nc(-c2cccc(-c3cccc4c3CC[C@@H]4Oc3nc(OC)c(CNC[C@@H]4CCC(=O)N4)cc3Br)c2Br)ccc1CNC[C@@H]1CCC(=O)N1 [Example 698] | 0.704 | 111 | 152
30 | COc1nc(-c2cccc(-c3cccc4c3CC[C@@H]4Oc3nc(OCc4cncc(C#N)c4)c(CN[C@@](C)(CO)C(=O)O)cc3Br)c2Br)ccc1CNC[C@@H]1CCC(=O)N1 [Example 699] | 0.12 | 24.7 | 136
31 | COc1nc(-c2cccc(-c3cccc4c3CC[C@@H]4Oc3nc(OCc4cncc(C#N)c4)c(CN[C@@](C)(CO)C(=O)O)cc3Cl)c2Br)ccc1CNC[C@@H]1CCC(=O)N1 [Example 700] | 0.064 | 22.1 | 43
32 | COc1nc(-c2cccc(-c3cccc4c3CC[C@@H]4Oc3nc(OCc4cncc(C#N)c4)c(CNC(C)(C)C(=O)O)cc3Cl)c2Br)ccc1C1=NCCN1 [Example 701] | 0.818 | 332 | 3050
33 | COc1nc(-c2cccc(-c3cccc4c3CC[C@@H]4Oc3nc(OCc4cncc(C#N)c4)c(CN[C@@](C)(CO)C(=O)O)cc3Cl)c2Br)ccc1C1=NCCN1 [Example 702] | 0.316 | 332 | 1310
